Data reported in ChEMBL document CHEMBL3091369, “Synthesis and structure-activity relationships of new carbonyl guanidine derivatives as novel dual 5-HT2B and 5-HT7 receptor antagonists” (Bioorg Med Chem, 2013).
Values belong to the molecule of their own block, whether it stands above or below them.

How the values were obtained:
[1] = target: T1, 5-hydroxytryptamine receptor 2B (Homo sapiens, UniProt P41595); test: Displacement of [3H]Mesulergine from human 5-HT2B receptor expressed in HEK293 cells by liquid scintillation counting analysis; assay type: cell-based
T1 sequence (P41595 whole entry): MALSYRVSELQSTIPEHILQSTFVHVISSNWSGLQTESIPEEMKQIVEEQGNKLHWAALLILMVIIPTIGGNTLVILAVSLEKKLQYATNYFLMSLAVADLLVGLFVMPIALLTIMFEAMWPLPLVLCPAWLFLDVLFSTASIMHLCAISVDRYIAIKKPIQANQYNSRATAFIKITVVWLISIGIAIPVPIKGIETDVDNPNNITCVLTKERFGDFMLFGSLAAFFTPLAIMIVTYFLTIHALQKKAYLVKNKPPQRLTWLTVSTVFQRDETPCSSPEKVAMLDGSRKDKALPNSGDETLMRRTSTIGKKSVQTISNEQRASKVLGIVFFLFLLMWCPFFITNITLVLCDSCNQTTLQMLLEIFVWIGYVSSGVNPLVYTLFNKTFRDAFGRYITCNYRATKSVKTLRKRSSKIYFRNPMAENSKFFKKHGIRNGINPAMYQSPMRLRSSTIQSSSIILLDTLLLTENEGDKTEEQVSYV

[2] = target: T2, 5-hydroxytryptamine receptor 7 (Homo sapiens, UniProt P34969); test: Displacement of [3H]5-HT from human 5-HT7 receptor expressed in CHO cells by liquid scintillation counting analysis; assay type: cell-based
T2 sequence (P34969 whole entry): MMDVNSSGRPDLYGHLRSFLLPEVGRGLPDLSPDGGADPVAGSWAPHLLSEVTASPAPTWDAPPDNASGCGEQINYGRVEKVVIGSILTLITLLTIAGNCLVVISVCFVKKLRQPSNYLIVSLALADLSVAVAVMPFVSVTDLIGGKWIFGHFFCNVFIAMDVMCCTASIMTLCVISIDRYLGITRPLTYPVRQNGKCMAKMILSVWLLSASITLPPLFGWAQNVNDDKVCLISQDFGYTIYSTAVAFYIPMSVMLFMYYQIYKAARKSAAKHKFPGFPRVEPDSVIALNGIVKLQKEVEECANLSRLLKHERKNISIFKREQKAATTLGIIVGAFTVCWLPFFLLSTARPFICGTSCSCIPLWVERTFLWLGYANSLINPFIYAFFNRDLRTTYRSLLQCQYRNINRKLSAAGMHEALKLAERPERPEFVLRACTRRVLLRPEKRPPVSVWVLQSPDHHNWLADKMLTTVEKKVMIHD

[3] = tested on: Cavia porcellus; test: Suppression of 5-HT induced dural FITC-labeled BSA extravasation in Hartley guinea pig at 3 mg/kg, ip pretreated for 30 mins followed by FITC-labeled BSA administration measured after 16 hrs by fluorescence assay relative to control; assay type: functional; conditions: route intraperitoneal
[4] = target: T1, 5-hydroxytryptamine receptor 2B; test: Antagonist activity at human 5-HT2B receptor expressed in HEK293 cells coexpressing EBNA assessed as inhibition of 5-HT-induced IP metabolism incubated for 20 mins prior to substrate addition measured after 20 mins by liquid scintillation counting analysis; assay type: cell-based
[5] = target: T3, Muscarinic acetylcholine receptor M1 (Homo sapiens, UniProt P11229); test: Binding affinity to muscarinic M1 receptor (unknown origin)
T3 sequence (P11229 whole entry): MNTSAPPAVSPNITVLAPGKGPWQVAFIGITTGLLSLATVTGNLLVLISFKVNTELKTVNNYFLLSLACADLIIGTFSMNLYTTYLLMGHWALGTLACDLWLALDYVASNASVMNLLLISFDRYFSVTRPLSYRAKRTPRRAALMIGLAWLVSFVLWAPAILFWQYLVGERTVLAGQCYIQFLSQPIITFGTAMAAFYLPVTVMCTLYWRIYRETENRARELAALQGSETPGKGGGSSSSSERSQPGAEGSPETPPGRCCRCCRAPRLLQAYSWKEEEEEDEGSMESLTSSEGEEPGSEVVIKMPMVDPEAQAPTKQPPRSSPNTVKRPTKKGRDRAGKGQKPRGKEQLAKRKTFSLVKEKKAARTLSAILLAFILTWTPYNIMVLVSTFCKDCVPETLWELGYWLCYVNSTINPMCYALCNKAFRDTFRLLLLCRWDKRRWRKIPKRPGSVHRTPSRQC

[6] = target: D(2) dopamine receptor (Homo sapiens, UniProt P14416); test: Binding affinity to dopamine D2 receptor (unknown origin)
D(2) dopamine receptor, sequence (P14416 whole entry): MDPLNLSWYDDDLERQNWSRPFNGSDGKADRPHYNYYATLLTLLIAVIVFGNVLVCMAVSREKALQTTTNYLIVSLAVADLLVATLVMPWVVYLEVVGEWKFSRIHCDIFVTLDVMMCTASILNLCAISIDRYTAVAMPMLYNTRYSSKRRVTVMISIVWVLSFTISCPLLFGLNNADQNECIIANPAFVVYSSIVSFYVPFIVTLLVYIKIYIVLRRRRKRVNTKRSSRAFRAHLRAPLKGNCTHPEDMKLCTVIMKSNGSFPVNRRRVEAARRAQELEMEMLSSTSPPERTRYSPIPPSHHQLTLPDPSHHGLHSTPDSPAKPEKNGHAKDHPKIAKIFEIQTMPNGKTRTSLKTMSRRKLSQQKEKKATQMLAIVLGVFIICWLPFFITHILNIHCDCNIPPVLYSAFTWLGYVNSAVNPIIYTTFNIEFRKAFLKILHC

[7] = tested on: Cavia porcellus; test: Suppression of 5-HT induced dural FITC-labeled BSA extravasation in po dosed Hartley guinea pig pretreated for 30 mins followed by FITC-labeled BSA administration measured after 16 hrs by fluorescence assay; assay type: functional, organism-based
[8] = target: T2, 5-hydroxytryptamine receptor 7; test: Antagonist activity at human 5-HT7 receptor expressed in CHO cells assessed as inhibition of agonist-induced cAMP production at 10 uM incubated for 20 mins prior to substrate addition measured after 10 mins by EIA relative to control; assay type: functional, cell-based
[9] = target: T4, Adrenergic receptor alpha-1 (Homo sapiens, UniProt P35348+P25100+P35368); test: Binding affinity to adrenergic alpha1 receptor (unknown origin)
T4 sequence (P35348 whole entry): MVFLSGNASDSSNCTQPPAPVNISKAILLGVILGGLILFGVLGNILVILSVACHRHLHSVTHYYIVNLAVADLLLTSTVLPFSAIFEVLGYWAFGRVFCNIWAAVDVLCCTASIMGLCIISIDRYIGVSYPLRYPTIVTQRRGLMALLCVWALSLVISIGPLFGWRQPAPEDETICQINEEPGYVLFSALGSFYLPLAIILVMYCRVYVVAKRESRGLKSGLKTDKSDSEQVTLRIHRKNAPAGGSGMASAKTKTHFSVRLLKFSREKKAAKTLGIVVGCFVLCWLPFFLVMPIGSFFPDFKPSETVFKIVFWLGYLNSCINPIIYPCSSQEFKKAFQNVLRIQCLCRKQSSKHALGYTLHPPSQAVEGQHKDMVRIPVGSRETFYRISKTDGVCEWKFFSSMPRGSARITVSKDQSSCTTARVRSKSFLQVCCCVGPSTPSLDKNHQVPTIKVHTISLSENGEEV
T4 sequence (P25100 whole entry): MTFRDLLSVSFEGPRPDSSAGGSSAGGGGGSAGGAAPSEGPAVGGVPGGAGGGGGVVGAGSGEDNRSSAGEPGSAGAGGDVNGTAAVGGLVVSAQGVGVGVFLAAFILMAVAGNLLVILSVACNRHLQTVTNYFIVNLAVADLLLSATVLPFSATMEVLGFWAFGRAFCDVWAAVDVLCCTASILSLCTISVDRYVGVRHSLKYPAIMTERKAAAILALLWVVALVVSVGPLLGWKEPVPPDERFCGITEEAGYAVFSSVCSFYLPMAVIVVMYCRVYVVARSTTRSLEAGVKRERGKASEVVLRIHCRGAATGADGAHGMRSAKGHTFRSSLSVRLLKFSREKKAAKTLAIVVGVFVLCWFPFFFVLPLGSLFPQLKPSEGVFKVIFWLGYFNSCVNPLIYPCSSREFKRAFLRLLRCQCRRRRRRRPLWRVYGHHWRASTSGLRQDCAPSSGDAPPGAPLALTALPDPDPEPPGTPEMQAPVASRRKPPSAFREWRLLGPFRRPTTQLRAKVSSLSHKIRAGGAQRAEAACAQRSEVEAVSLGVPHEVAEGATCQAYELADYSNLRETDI
T4 sequence (P35368 whole entry): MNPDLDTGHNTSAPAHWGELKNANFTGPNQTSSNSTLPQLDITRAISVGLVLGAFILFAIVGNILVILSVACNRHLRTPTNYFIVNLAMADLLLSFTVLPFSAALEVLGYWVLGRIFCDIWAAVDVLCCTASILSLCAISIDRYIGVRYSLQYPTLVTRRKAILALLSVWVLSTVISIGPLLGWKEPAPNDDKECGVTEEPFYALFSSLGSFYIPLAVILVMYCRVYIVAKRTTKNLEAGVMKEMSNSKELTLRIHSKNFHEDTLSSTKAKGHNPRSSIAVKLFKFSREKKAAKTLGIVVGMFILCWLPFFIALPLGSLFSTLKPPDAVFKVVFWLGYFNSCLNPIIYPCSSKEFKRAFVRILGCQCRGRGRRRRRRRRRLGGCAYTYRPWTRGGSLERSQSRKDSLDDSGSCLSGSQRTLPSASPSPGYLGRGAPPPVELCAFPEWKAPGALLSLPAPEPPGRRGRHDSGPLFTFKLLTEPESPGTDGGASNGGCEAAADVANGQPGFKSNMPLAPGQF

[10] = Aqueous solubility of the compound in second liquid of Japanese pharmacopoeia at pH 6.8 after 20 hrs by liquid chromatographic analysis; assay type: physicochemical
[11] = target: T5, 5-hydroxytryptamine receptor 2C (Homo sapiens, UniProt P28335); test: Binding affinity to 5-HT2C receptor (unknown origin)
T5 sequence (P28335 whole entry): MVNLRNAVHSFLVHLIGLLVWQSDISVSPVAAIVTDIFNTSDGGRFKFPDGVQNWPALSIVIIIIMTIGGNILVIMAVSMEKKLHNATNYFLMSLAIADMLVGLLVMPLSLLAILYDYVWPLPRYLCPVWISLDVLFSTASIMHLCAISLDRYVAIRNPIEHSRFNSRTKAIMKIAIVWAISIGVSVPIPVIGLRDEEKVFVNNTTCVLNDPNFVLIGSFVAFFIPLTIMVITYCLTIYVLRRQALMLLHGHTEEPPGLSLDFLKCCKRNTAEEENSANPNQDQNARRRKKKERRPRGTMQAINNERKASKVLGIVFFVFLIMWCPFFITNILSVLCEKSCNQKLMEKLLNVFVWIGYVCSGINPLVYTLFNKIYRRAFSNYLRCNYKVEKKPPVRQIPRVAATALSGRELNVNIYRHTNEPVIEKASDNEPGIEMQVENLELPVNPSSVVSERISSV

[12] = tested on: Cavia porcellus; test: Suppression of 5-HT induced dural FITC-labeled BSA extravasation in ip dosed Hartley guinea pig pretreated for 30 mins followed by FITC-labeled BSA administration measured after 16 hrs by fluorescence assay; assay type: functional, organism-based
[13] = target: 5-hydroxytryptamine receptor 2A (Homo sapiens, UniProt P28223); test: Binding affinity to 5-HT2A receptor (unknown origin)
5-hydroxytryptamine receptor 2A, sequence (P28223 whole entry): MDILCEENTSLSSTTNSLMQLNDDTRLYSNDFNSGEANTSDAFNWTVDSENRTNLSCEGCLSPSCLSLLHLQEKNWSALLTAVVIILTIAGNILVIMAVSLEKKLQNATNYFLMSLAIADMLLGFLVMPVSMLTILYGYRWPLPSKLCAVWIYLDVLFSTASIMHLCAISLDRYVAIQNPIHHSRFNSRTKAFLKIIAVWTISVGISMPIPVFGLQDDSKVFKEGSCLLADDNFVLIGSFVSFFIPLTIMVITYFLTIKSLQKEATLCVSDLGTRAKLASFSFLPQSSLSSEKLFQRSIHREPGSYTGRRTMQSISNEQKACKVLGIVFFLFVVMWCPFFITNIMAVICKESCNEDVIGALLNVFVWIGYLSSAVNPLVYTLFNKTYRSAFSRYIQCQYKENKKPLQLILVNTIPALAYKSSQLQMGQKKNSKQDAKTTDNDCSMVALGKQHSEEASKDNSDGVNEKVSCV

Ki [1]: 1.1 nM
Ki [2]: 239 nM
Compound: NC(N)=NC(=O)c1cccc2c1Cc1ccccc1-2

Ki [1]: 86.8 nM
Ki [2]: > 1000 nM
Compound: NC(N)=NC(=O)c1ccc2c(c1)-c1ccccc1C2O (configuration not stated)

Ki [1]: 2.4 nM
Ki [2]: > 1000 nM
Compound: NC(N)=NC(=O)c1ccc2c(c1)Oc1ccccc1N2

Compound: CC(C)c1cc(-c2ccc(F)c3ccccc23)nc(N)n1
Activity [3]: 60%

IC50 [4]: 19.6 nM
Ki [5]: > 1000 nM
Ki [6]: > 1000 nM
Imax [8]: 97%
Ki [9]: > 1000 nM
solubility at 20 h [10]: < 10 µg/mL
Ki [11]: > 1000 nM
Ki [13]: > 1000 nM
Compound: Cl.NC(N)=NC(=O)c1ccc2c(c1)C(O)c1ccccc1-2 (configuration not stated)
Activity [7]: Dose-dependent effect
Activity [3]: 93%
Activity [12]: Dose-dependent effect

IC50 [4]: 36.4 nM
Ki [5]: > 1000 nM
Ki [1]: 1.8 nM
Ki [6]: 1400 nM
Imax [8]: 98%
Ki [9]: 790 nM
solubility at 20 h [10]: < 1 µg/mL
Ki [2]: 12.4 nM
Ki [11]: 200 nM
Ki [13]: 1000 nM
Compound: NC(N)=NC(=O)c1ccc2c(c1)Cc1ccccc1-2

Ki [1]: 10 nM
Ki [2]: 42 nM
Compound: NC(N)=NC(=O)c1ccc2c(c1)[nH]c1ccccc12

Ki [1]: 0.4 nM
Ki [2]: 185 nM
Compound: NC(N)=NC(=O)c1ccc2c(c1)C(=O)c1ccccc1-2

Ki [1]: 27.4 nM
Ki [2]: > 1000 nM
Compound: NC(N)=NC(=O)c1cccc2c1-c1ccccc1C2

Ki [1]: 2.1 nM
Ki [2]: > 100 nM
Compound: NC(N)=NC(=O)c1ccc2c(c1)oc1ccccc12

Ki [5]: 2 nM
Ki [1]: 2 nM
Ki [6]: 2.4 nM
Ki [9]: 75 nM
Ki [2]: 25 nM
Ki [11]: 1.4 nM
Ki [13]: 7.5 nM
Compound: CN1CCC(=C2c3ccccc3CCc3sccc32)CC1 [PIZOTYLINE]

Ki [1]: 3.6 nM
Ki [2]: 144 nM
Compound: NC(N)=NC(=O)c1ccc2c(c1)Nc1ccccc1O2

Ki [1]: 52 nM
Ki [2]: > 100 nM
Compound: NC(N)=NC(=O)/C=C/c1ccc2c(c1)C(O)c1ccccc1-2 (configuration not stated)
